Earlier results on one substance are cited in patent US9409968B2, “Toll-like receptor-based biosensors” (University of Massachusetts, priority 2009, dated 2016).

This series concerns lupus-prone mice. The conditions noted are these: administered to lupus-prone mice.

For “5′-TGCTCCTGGAGGGGTTGT-3′ (listed as DNA, chemistry not given here) [IRS 954]”, the autoantibody production entry was “reduction of autoantibody production” and the disease symptoms entry was “amelioration of disease symptoms”.
